Legend:
TcAUK1 = molecular target: T1, TcAUK1 (Trypanosoma cruzi, UniProt Q4DKE3); test: […]-ATP phosphorylation of Tcpolβ, SDS-PAGE autoradiography; over […] decrease at […]; type: biochemical
T1 construct: gene Tc00.1047053508817.80; recombinant, expressed in E. coli (pET15b), renatured and purified

TcCK2α = molecular target: T2, TcCK2α (Trypanosoma cruzi, UniProt Q4E340); test: […]-ATP phosphorylation of pCK2β, SDS-PAGE autoradiography; type: biochemical
T2 construct: gene Tc00.1047053508741.320; recombinant TcCK2α in hybrid CK2 holoenzyme; with S. pombe CK2β (pCK2β)
T2 sequence (P40232 whole entry): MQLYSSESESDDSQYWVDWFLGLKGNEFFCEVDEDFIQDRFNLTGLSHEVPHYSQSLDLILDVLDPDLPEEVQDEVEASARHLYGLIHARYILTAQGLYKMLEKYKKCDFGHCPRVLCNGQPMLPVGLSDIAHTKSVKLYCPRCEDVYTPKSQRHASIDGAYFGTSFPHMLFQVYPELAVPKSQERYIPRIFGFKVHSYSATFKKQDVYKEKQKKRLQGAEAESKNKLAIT
T2 sequence (Q4E340 entry or part of it): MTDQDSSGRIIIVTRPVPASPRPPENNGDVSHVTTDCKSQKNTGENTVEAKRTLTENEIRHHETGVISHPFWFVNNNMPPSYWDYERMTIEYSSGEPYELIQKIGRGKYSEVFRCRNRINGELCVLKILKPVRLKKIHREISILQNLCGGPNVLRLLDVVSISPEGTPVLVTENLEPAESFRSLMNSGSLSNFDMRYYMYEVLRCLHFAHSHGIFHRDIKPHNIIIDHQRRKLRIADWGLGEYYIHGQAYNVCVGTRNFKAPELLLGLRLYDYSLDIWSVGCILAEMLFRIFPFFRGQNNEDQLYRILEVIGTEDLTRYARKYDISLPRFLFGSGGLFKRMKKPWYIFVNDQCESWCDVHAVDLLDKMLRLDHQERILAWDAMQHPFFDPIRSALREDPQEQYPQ

T1 sequence (Q4DKE3 entry or part of it): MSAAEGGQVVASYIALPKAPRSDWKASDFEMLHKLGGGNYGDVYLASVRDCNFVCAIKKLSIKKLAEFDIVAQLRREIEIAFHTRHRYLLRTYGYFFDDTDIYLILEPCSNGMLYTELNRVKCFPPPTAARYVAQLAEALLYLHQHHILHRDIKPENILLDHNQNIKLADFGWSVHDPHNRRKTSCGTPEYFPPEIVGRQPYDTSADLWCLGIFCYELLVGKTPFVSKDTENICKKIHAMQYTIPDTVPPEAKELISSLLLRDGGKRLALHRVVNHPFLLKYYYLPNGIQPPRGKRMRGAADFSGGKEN

Structure (SMILES) | 32P-ATP phosphorylation of Tcpolβ, SDS-PAGE autoradiography; over 60% decrease a (TcAUK1) | IC50 (TcCK2α)
O=C(Nc1cccc(Cl)c1)Nc1ncc(CCNc2ncnc3ccsc23)s1 [SNS314] | ~ 48 nM | –
Brc1c(Br)c(Br)c2[nH]nnc2c1Br [TBB, 4,5,6,7-tetrabromobenzotriazole] | – | 0.5 to 1 µM

From PMC8312956, “T. cruzi DNA polymerase beta (Tcpolβ) is phosphorylated in vitro by CK1, CK2 and TcAUK1 leading to the potentiation of its DNA synthesis activity” (PLoS Neglected Tropical Diseases, 2021)
